The values that follow come from patent US7527792B1, “Pharmaceutical composition comprising an anti-cancer and at least a peptide” (Synt : EM, priority 1998, dated 2009).

Holding throughout (assay type): cell-based, human
The test system of experiment [1] is resistant K562/ADR cells. As to the kind of experiment: Internalisation by flow cytometry. To be noted: 3 μM, 30 min incubation at 37° C. Here is the method:
(§1) The susceptible K562 chronic myeloid leukaemia cells, resistant K562/ADR cells and HL60/R10 promyeloid leukaemia cells are of human origin and were obtained commercially from the ATCC. The cells are inoculated at a rate of approximately 10^4 cells per well, 24 hours before adding the products. The cells are kept in culture at 37° C. in an atmosphere at 95% humidity and 5% CO2 in an OptiMem medium.
The susceptible K562 cells and resistant K562/ADR cells are incubated either with free doxorubicin or with doxorubicin in a vector at a concentration of 3 μM. After 30 minutes of incubation at 37° C., the cells are washed three times with PBS. The internalisation of the products is then analysed by flow cytometry. The samples are analysed with a flow cytometer equipped with a 15 mA argon laser. The fluorescence emitted is recorded on a logarithmic scale at (575 NM) nm after an excitation at (488) nm. The fluorescence is measured on 10,000 cells selected according to the […] parameters. The results are expressed as a percentage of positive cells of the fluorescence intensity logarithm. The results are analysed using the software program Cell Quest.
The susceptible K562 cells and resistant K562/ADR cells are incubated either with free doxorubicin or with doxorubicin in the vector. After 30 min of incubation, the internalisation of the products is measured by flow cytometry.

In experiment [2] the test system is resistant K562/ADR cells. The experiment is described as follows: Cytotoxicity, MTT test, resistant line. Particulars: for F. Rev (reversion factor): K562/ADR, effect of the vector on susceptibility, free doxo versus compound; for F. Res (resistance factor): ratio of IC50 values, resistant line K562/ADR versus susceptible K562. The method, then:
as §1
[…] At the end of the culture period, MTT (3-(4,5-dimethylthiazole-2-yl)-2,5-diphenyltetrazolium bromide) is added into the wells and the culture plates are then incubated for 4 hours in the incubator. The resulting crystalline formazan deposit is then dissolved by adding 200 μl of DMF/SDS. The optical density (OD) is measured at 550 nm (reference 630 nm) using a microplate reader.
(§2) The graphic representation of the OD percentages of the wells treated as a function of the concentration of products is used to determine the IC50 which corresponds to the concentration of product that inhibits 50% of growth.
The IC50 values are used to quantify the resistance factor (F. Res) of the resistant lines using the following ratio:
The reversion factor (F. Rev) corresponds to the effect of a modulator (the vector) on the susceptibility of the cells to the anti-tumour agents according to the following ratio:
The susceptibility of the cells to anti-tumour agents was measured using the MTT test under the experimental conditions defined above wherein the relationship between the optical density and the number of viable cells is linear.

Experiment [3] deals with HL60/R10 promyeloid leukaemia cells. The experiment is described as follows: Cytotoxicity, MTT test, HL60/R10. Here is the method:
as §1
The susceptible K562 cells and resistant K562/ADR cells are incubated either with free doxorubicin or with doxorubicin in a vector at increasing concentrations after 48 hours in culture in the presence of the products. At the end of the culture period, MTT (3-(4,5-dimethylthiazole-2-yl)-2,5-diphenyltetrazolium bromide) is added into the wells and the culture plates are then incubated for 4 hours in the incubator. The resulting crystalline formazan deposit is then dissolved by adding 200 μl of DMF/SDS. The optical density (OD) is measured at 550 nm (reference 630 nm) using a microplate reader.
as §2
The reversion factor (F. Rev) corresponds to the effect of a modulator (the vector) on the susceptibility of the cells to the anti-tumour agents according to the following ratio: […]

The subject of experiment [4] is susceptible K562 chronic myeloid leukaemia cells. As to the kind of experiment: Cytotoxicity, MTT test, susceptible line. To be noted: 8 μM, 24 hours incubation.

Values joined by “and” are separate entries in the source; they are usually repeats but may differ in a detail not shown here. Equal values may be shown once. Read-outs that look alike come from different tables or passages of the source. Numbered stars: 1 amine (or outer) side, 2 acyl side, 3 side chain; on linkers, the order of the positions; unused ones are H or OH. Peptide text beside a SMILES is read from it. * marks the point of attachment. X1 = COc1cccc2c1C(=O)c1c(O)c3c(c(O)c1C2=O)C[C@@](O)(C(=O)CO)C[C@@H]3O[C@H]1C[C@H](NC(=O)CCN2C(=O)CC(*)C2=O)[C@H](O)[C@H](C)O1; Doxorubicin(3'-N) = COc1cccc2c1C(=O)c1c(O)c3c(c(O)c1C2=O)C[C@@](O)(C(=O)CO)C[C@@H]3O[C@H]1C[C@H](N*)[C@H](O)[C@H](C)O1; Suc = O=C(CCC(=O)[*:2])[*:1]

Take `CC[C@@H](C)[C@@H](NC(=O)[C@@H](CCCCN)NC(=O)[C@H](NC(=O)[C@@H](CCC(N)=O)NC(=O)[C@@H](CCCNC(=N)N)NC(=O)CCSC1CC(=O)N(CCC(=O)N[C@H]2C[C@H](O[C@H]3C[C@](O)(C(=O)CO)Cc4c(O)c5c(c(O)c43)C(=O)c3c(OC)cccc3C5=O)O[C@@H](C)[C@H]2O)C1=O)[C@H](C)CC)C(=O)N[C@H](Cc1c[nH]c2ccccc12)C(=O)N[C@H](Cc1ccccc1)C(=O)N[C@H](CCC(N)=O)C(=O)N[C@H](CC(N)=O)C(=O)N[C@H](CCCNC(=N)N)C(=O)N[C@H](CCCNC(=N)N)C(=O)N[C@H](CCSC)C(=O)N[C@H](CCCCN)C(=O)N[C@H](Cc1c[nH]c2ccccc12)C(=O)N[C@H](CCCCN)C(=O)N[C@H](CCCCN)C(=O)O` (some centres unmarked) [Compound 5, doxo-SMP-3MP-rqikiwfgnrrmkwkk]: the “percentage of positive cells (internalisation)” value with resistant K562/ADR cells [1] worked out at 98%. In the experiment on resistant K562/ADR cells [2], the “F. Rev (reversion factor)” value stood at 35 and the “F. Res (resistance factor)” value stood at 1.3. Moreover, the IC50 in the experiment with resistant K562/ADR cells [2] (resistant line K562/ADR, MTT, 50% growth inhibition, read-out: IC50 K562/ADR) was 2 µM.
Regarding `COc1cccc2c1C(=O)c1c(O)c3c(c(O)c1C2=O)C[C@@](O)(C(=O)CO)C[C@@H]3O[C@H]1C[C@H](NC(=O)CCC(=O)N[C@@H](CCCNC(=N)N)C(=O)NCC(=O)NCC(=O)N[C@@H](CCCNC(=N)N)C(=O)N[C@@H](CC(C)C)C(=O)N[C@@H](C)C(=O)N[C@@H](Cc2ccc(O)cc2)C(=O)N[C@@H](CC(C)C)C(=O)N[C@@H](CCCNC(=N)N)C(=O)N[C@@H](CCCNC(=N)N)C(=O)N[C@@H](CCCNC(=N)N)C(=O)N[C@@H](Cc2c[nH]c3ccccc23)C(=O)N[C@@H](C)C(=O)N[C@H](C(=O)N[C@@H](CC(C)C)C(=O)N[C@H](C(=O)NCC(=O)N[C@@H](CCCNC(=N)N)C(=O)O)C(C)C)C(C)C)[C@H](O)[C@H](C)O1` [Compound 7, doxo-CO-(CH2)2-CO-RGGRLAYLRRRWAVLVGR] ({Doxorubicin(3'-N)-Suc}-RGGRLAYLRRRWAVLVGR-OH; N-terminus and C-terminus assumed), in the experiment on resistant K562/ADR cells [2], the “F. Rev (reversion factor)” value is on record as greater than 26 and the “F. Res (resistance factor)” value came out at 0.85.
Take `COc1cccc2c1C(=O)c1c(O)c3c(c(O)c1C2=O)C[C@@](O)(C(=O)CO)C[C@@H]3O[C@H]1C[C@H](NC(=O)CCC(=O)N[C@@H](CCCNC(=N)N)C(=O)NCC(=O)NCC(=O)N[C@@H](CCCNC(=N)N)C(=O)N[C@@H](CC(C)C)C(=O)N[C@@H](CO)C(=O)N[C@@H](Cc2ccc(O)cc2)C(=O)N[C@@H](CO)C(=O)N[C@@H](CCCNC(=N)N)C(=O)N[C@@H](CCCNC(=N)N)C(=O)N[C@@H](CCCNC(=N)N)C(=O)N[C@@H](Cc2ccccc2)C(=O)N[C@@H](CO)C(=O)N[C@H](C(=O)N[C@@H](CO)C(=O)N[C@H](C(=O)NCC(=O)N[C@@H](CCCNC(=N)N)C(=O)O)[C@@H](C)O)[C@@H](C)O)[C@H](O)[C@H](C)O1` [Compound 1, doxo-CO-(CH2)2-CO-RGGRLSYSRRRFSTSTGR] ({Doxorubicin(3'-N)-Suc}-RGGRLSYSRRRFSTSTGR-OH; N-terminus and C-terminus assumed): in the experiment on resistant K562/ADR cells [2], the “F. Rev (reversion factor)” value worked out at 2.5 and the “F. Res (resistance factor)” value is recorded as 0.7.
For the compound `COc1cccc2c1C(=O)c1c(O)c3c(c(O)c1C2=O)C[C@@](O)(C(=O)CO)C[C@@H]3O[C@H]1C[C@H](NC(=O)CCC(=O)N[C@@H](CCCNC(=N)N)C(=O)N[C@@H](CCCNC(=N)N)C(=O)N[C@@H](CC(C)C)C(=O)N[C@@H](CO)C(=O)N[C@@H](Cc2ccc(O)cc2)C(=O)N[C@@H](CO)C(=O)N[C@@H](CCCNC(=N)N)C(=O)N[C@@H](CCCNC(=N)N)C(=O)N[C@@H](CCCNC(=N)N)C(=O)N[C@@H](Cc2ccccc2)C(=O)O)[C@H](O)[C@H](C)O1` [Compound 4, doxo-CO-(CH2)2-CO-RRLSYSRRRF] ({Doxorubicin(3'-N)-Suc}-RRLSYSRRRF-OH; N-terminus and C-terminus assumed), in the experiment with resistant K562/ADR cells [2], the “F. Rev (reversion factor)” value was determined as 2.8 and the “F. Res (resistance factor)” value is listed as 1.
In the case of `COc1cccc2c1C(=O)c1c(O)c3c(c(O)c1C2=O)C[C@@](O)(C(=O)CO)C[C@@H]3O[C@H]1C[C@H](N)[C@H](O)[C@H](C)O1` [Free Doxo, doxorubicin, reference compound], the IC50 in experiment [3] (Homo sapiens, HL-60, HL60/R10 doxorubicin-resistant cells, MTT) was determined as 40 µM; in the experiment on resistant K562/ADR cells [2] (resistant line K562/ADR, MTT, 50% growth inhibition, listed as free doxorubicin, read-out: IC50 K562/ADR), 70 µM. In addition, the “percentage of positive cells (internalisation)” value in the experiment on resistant K562/ADR cells [1] (listed as free doxorubicin) was 5.86% and 5.68%. The “survival of the cells” value was found to be 100% with resistant K562/ADR cells [2] (K562/ADR resistant cells, 8 μM, 24 hours incubation, MTT) and 15% in experiment [4].
In the case of `COc1cccc2c1C(=O)c1c(O)c3c(c(O)c1C2=O)C[C@@](O)(C(=O)CO)C[C@@H]3O[C@H]1C[C@H](NC(=O)CCC(=O)N[C@@H](CCCNC(=N)N)C(=O)NCC(=O)NCC(=O)N[C@@H](CCCNC(=N)N)C(=O)N[C@@H](CC(C)C)C(=O)N[C@@H](CO)C(=O)N[C@@H](Cc2ccc(O)cc2)C(=O)N[C@@H](CO)C(=O)N[C@@H](CCCNC(=N)N)C(=O)N[C@@H](CCCNC(=N)N)C(=O)N[C@@H](CCCNC(=N)N)C(=O)N[C@@H](Cc2ccccc2)C(=O)N[C@@H](CO)C(=O)N[C@H](C(=O)N[C@@H](CO)C(=O)N[C@H](C(=O)NCC(=O)N[C@@H](CCCNC(=N)N)C(=O)O)C(C)C)C(C)C)[C@H](O)[C@H](C)O1` [Compound 2, doxo-CO-(CH2)2-CO-RGGRLSYSRRRFSVSVGR] ({Doxorubicin(3'-N)-Suc}-RGGRLSYSRRRFSVSVGR-OH; N-terminus and C-terminus assumed), the “F. Rev” value in experiment [3] (HL60/R10) came out at 1.6. The IC50 in the experiment on resistant K562/ADR cells [2] (FIG. 5 experiment, linked versus not linked with peptide, cell line not given, resistant cells implied, read-out: IC50) amounted to 19 µM. In the experiment with resistant K562/ADR cells [2], the “F. Rev (reversion factor)” value amounted to 5 and the “F. Res (resistance factor)” value is on record as 0.9.
Consider `CC[C@H](C)[C@H](NC(=O)CNC(=O)[C@H](CCCNC(=N)N)NC(=O)[C@H](Cc1ccc(O)cc1)NC(=O)[C@H](CO)NC(=O)[C@@H](NC(=O)[C@H](CCCNC(=N)N)NC(=O)[C@H](Cc1ccccc1)NC(=O)[C@H](CO)NC(=O)[C@H](Cc1c[nH]c2ccccc12)NC(=O)[C@H](CCCCN)NC(=O)CCC(=O)N[C@H]1C[C@H](O[C@H]2C[C@](O)(C(=O)CO)Cc3c(O)c4c(c(O)c32)C(=O)c2c(OC)cccc2C4=O)O[C@@H](C)[C@H]1O)C(C)C)C(=O)N[C@@H](CO)C(=O)N[C@@H](Cc1ccc(O)cc1)C(=O)N[C@@H](CCCNC(=N)N)C(=O)N[C@@H](CCCNC(=N)N)C(=O)N[C@@H](CO)C(=O)N[C@@H](CCCNC(=N)N)C(=O)O` [Compound 3, doxo-CO-(CH2)2-CO-KWSFRVSYRGISYRRSR] ({Doxorubicin(3'-N)-Suc}-KWSFRVSYRGISYRRSR-OH; N-terminus and C-terminus assumed), for which, in the experiment with resistant K562/ADR cells [2], the “F. Rev (reversion factor)” value is 43 and the “F. Res (resistance factor)” value amounted to 0.8.
The corresponding values for `CC[C@H](C)[C@H](NC(=O)[C@H](CCCCN)NC(=O)[C@@H](NC(=O)[C@H](CC(N)=O)NC(=O)[C@H](CCC(=O)O)NC(=O)[C@@H](N)CSC1CC(=O)N(CCC(=O)N[C@H]2C[C@H](O[C@H]3C[C@](O)(C(=O)CO)Cc4c(O)c5c(c(O)c43)C(=O)c3c(OC)cccc3C5=O)O[C@@H](C)[C@H]2O)C1=O)[C@@H](C)CC)C(=O)N[C@@H](Cc1c[nH]c2ccccc12)C(=O)N[C@@H](CC(C)C)C(=O)N[C@@H](CO)C(=O)N[C@@H](CC(C)C)C(=O)N[C@@H](CCCNC(=N)N)C(=O)N[C@@H](CO)C(=O)N[C@@H](Cc1ccc(O)cc1)C(=O)N[C@@H](CC(C)C)C(=O)N[C@@H](CCCCN)C(=O)N[C@@H](CCCNC(=N)N)C(=O)N[C@@H](CCCNC(=N)N)C(=O)O` (some centres unmarked) [Compound 6, doxo-SMP-CENIKIWLSLRSYLKRR] (H-C(X1)ENIKIWLSLRSYLKRR-OH; N-terminus and C-terminus assumed) are 12.8 and 1.1.
